The series is described as follows: Chart review of BONJ incidence in patients treated with bisphosphonates (UF / VAMC). Particulars: outpatient bone marrow transplant clinic, all patients had myeloma; pamidronate only (total incidence 13%). In kind it is in vivo, human. The text has this: Medical and dental charts at the University of Florida (UF) and the associated Veterans Administration Medical Center (VAMC) were reviewed. […] There were 21 males. […] Fourteen patients had modest increases in their serum creatinine concentrations. The average number of previous chemo/radiotherapy regimens was 3.5. Nine patients had Thalidomide, 5 had Bortizomib. Primary disease status was as follows: 12 patients in clinical remission, 5 with stable disease and 10 with progressive disease. Eight patients received statin therapy and 6 had diabetes mellitus. The median length of treatment with BP before the diagnosis of BONJ was 28 months. BONJ involved the mandible in 21 patients, maxilla in 4 and both in 2 patients. The most frequent presentation was pain, swelling, and exposed bone (FIG. 1). […] The BONJ incidence differed among the 3 centers where these patients were treated. […] The incidence in the VAMC was 4.2% while the incidence in the Cancer Center clinic at UF was 1.7%. In the latter two groups, patients had mostly solid tumors. The results described herein are consistent with the reports of increased incidence of BONJ with greater duration of therapy and that myeloma patients are more likely to develop the complication than solid tumor patients.

`NCCC(O)(P(=O)(O)O)P(=O)(O)O` [pamidronate] returned a BONJ incidence of 4%.

Values taken from US20110166107A1, “METHODS AND KITS FOR DETECTING RISK FACTORS FOR DEVELOPMENT OF JAW OSTEONECROSIS AND METHODS OF TREATMENT THEREOF” (UNIVERSITY OF FLORIDA RESEARCH FOUNDATION INC., priority 2008, published 2011).
